This passage reports Kd results from paper PMC11544072 (Heliyon, 2024).

The target of this test is CYP154C7. Description: UV/Vis spectral titration, type I spin shift. In kind it is binding, Streptomyces sp. PAMC26508.

As for `C[C@]12CCC(=O)C=C1CC[C@@H]1[C@@H]2CC[C@]2(C)C(=O)CC[C@@H]12` [androstenedione], the Kd is 201 ± 43 nM. Take `C[C@]12CCC(=O)C=C1CC[C@@H]1[C@@H]2C(=O)C[C@@]2(C)[C@H]1CC[C@]2(O)C(=O)CO` [cortisone]: the dissociation constant (Kd) came out at 2000 ± 340 nM. As for `C[C@]12CC[C@H]3[C@@H](CCC4=CC(=O)CC[C@@]43C)[C@@H]1CC[C@@H]2O` [testosterone], the figure is 304 ± 70 nM.
